According to patent US20130071897A1, “METHOD FOR CONTROLLING UNDESIRABLE BYPRODUCTS FORMATION CAUSED BY CONTAMINATING ORGANISMS IN THE PRODUCTION OF ETHANOL FROM SYNGAS” (COSKATA, INC., priority 2011, published 2013):
Where “and” joins values, the source holds several entries; their conditions need not be identical. Equal entries are not always repeated.

Legend:
Type in all cases: cell-based
C. autoethanogenum = test: Balch tube batch growth of homoacetogen C. autoethanogenum on fructose, optical density; settings: added 21 h after inoculation
[1] = system: Clostridium tyrobutyricum; test: Balch tube batch growth of strict butyrogen Clostridium tyrobutyricum on fructose, optical density; settings: added 21 h after inoculation
[2] = system: Clostridium tyrobutyricum; test: Serum bottle batch fermentation of Clostridium tyrobutyricum on fructose, optical density; settings: for O.D. Response: 5 mM, duplicates A and B
Procedure: Ethyl 3-(trifluoromethyl)benzoate is evaluated in a series of batch fermentations to determine the growth response of butyrogens to the presence of this compound at varying concentrations. The batch fermentations are conducted by anoxically filling 100 mL serum bottles with 15 mL of media having the composition given in Tables 12 and 13. About 0.15 mL of a 50% w/w solution of fructose in water (final fructose concentration about 5 g/L) is provided in the bottles. Duplicate runs are conducted for each concentration.
(§1) Each bottle is inoculated with 1.5 mL of seed culture inoculum of the strict butyrogen Clostridium tyrobutyricum, which has an OD of about 0.40 (which upon a 10 times dilution provides a starting OD for the fermentation of about 0.04). The bottles are maintained at a temperature of 37° C. Two hours after inoculation of the bottles with the bacteria, the compound is added to different bottles as a solution in 50 μL of N-methylpyrrolidone in the amounts indicated in Table 15. The fermentation process is allowed to progress at 37° C. At selected intervals of time, bacterial growth is measured by reading the optical density (OD) of the fermentation liquid. Optical density is measured by anoxically removing an aliquot of fermentation liquid and adding it to a disposable cuvette. OD's ranging between 0.01 and 0.4 are measured directly, while OD's greater than 0.4 are measure after performing a 1/10 dilution with water.
In this example ethyl 4,4,4-trifluoro-3-(trifluoromethyl)crotonate and ethyl 3-trifluoromethyl-4-methoxybenzoate are evaluated by batch fermentation. The batch fermentations are conducted by anoxically filling 100 mL serum bottles with 15 mL of media having the composition given in Tables 12 and 13. About 0.15 mL of a 50% w/w solution of fructose in water (final fructose concentration about 5 g/L) is provided in the bottles. Duplicate runs are conducted for each concentration.
as §1, with “of about 0.42 (which upon” for “of about 0.40 (which upon”, “of about 0.042). The bottles” for “of about 0.04). The bottles”, “in Table 16 and 17. The fermentation” for “in Table 15. The fermentation”, “0.4 are measured after performing” for “0.4 are measure after performing”

SMILES | Optical density valuation of C. autoethanogenum (C. autoethanogenum; 1 ppm(m)) | Optical density valuation of C. autoethanogenum (C. autoethanogenum; 5 ppm(m)) | Optical density valuation of C. autoethanogenum (C. autoethanogenum; 10 ppm(m)) | Optical density valuation of C. autoethanogenum (C. autoethanogenum; 50 ppm(m)) | Optical density valuation of C. autoethanogenum (C. autoethanogenum; 100 ppm(m)) | Optical density valuation of C. autoethanogenum (C. autoethanogenum; 500 ppm(m)) | Optical density valuation of C. autoethanogenum (C. autoethanogenum; 1000 ppm(m)) | Optical density valuation of C. autoethanogenum (C. autoethanogenum; 5000 ppm(m)) | Optical density valuation of C. autoethanogenum (C. autoethanogenum; 10000 ppm(m)) | Optical density valuation of C. tyrobutyricum ([1]; 100 ppm(m)) | Optical density valuation of C. tyrobutyricum ([1]; 500 ppm(m)) | Optical density valuation of C. tyrobutyricum ([1]; 1000 ppm(m)) | other results
CCOC(=O)/C=C(\N)C(F)(F)F [B, ethyl-3-amino-4,4,4-trifluorocrotonate] | + (bacterial growth to an OD of approximately 2 or above) | + (bacterial growth to an OD of approximately 2 or above) | + (bacterial growth to an OD of approximately 2 or above) | + (bacterial growth to an OD of approximately 2 or above) | + (bacterial growth to an OD of approximately 2 or above) | + (bacterial growth to an OD of approximately 2 or above) | + (bacterial growth to an OD of approximately 2 or above) | +/− (to an optical density in a range of 0.5 to 1.5) | − (failure of bacterial growth to reach an optical density of approximately 0.5) | + (bacterial growth to an OD of approximately 1.8 or above) | + (bacterial growth to an OD of approximately 1.8 or above) | + (bacterial growth to an OD of approximately 1.8 or above) | O.D. Response to Varying Inhibitor Concentrations ([2]; 100 ppm, 22.5 Hours, added 25 h after inoculation): 0.84; O.D. Response to Varying Inhibitor Concentrations ([2]; 100 ppm, 28.5 Hours): 1.48; O.D. Response to Varying Inhibitor Concentrations ([2]; 100 ppm, 43.5 Hours): 1.53; O.D. Response to Varying Inhibitor Concentrations ([2]; 250 ppm, 22.5 Hours, added 25 h after inoculation): 0.86; O.D. Response to Varying Inhibitor Concentrations ([2]; 250 ppm, 28.5 Hours): 1.87; O.D. Response to Varying Inhibitor Concentrations ([2]; 250 ppm, 43.5 Hours): 1.92; O.D. Response to Varying Inhibitor Concentrations ([2]; 500 ppm, 22.5 Hours, added 25 h after inoculation): 0.80; O.D. Response to Varying Inhibitor Concentrations ([2]; 500 ppm, 28.5 Hours): 0.93; O.D. Response to Varying Inhibitor Concentrations ([2]; 500 ppm, 43.5 Hours): 1.00; O.D. Response to Varying Inhibitor Concentrations ([2]; 1000 ppm, 22.5 Hours, added 25 h after inoculation): 0.70; O.D. Response to Varying Inhibitor Concentrations ([2]; 1000 ppm, 28.5 Hours): 0.77; O.D. Response to Varying Inhibitor Concentrations ([2]; 1000 ppm, 43.5 Hours): 0.78
CCOC(=O)C=C(C(F)(F)F)C(F)(F)F [Compound A, ethyl 4,4,4-trifluoro-3-(trifluoromethyl)crotonate] | + (bacterial growth to an OD of approximately 2 or above) | + (bacterial growth to an OD of approximately 2 or above) | + (bacterial growth to an OD of approximately 2 or above) | + (bacterial growth to an OD of approximately 2 or above) | + (bacterial growth to an OD of approximately 2 or above) | + (bacterial growth to an OD of approximately 2 or above) | + (bacterial growth to an OD of approximately 2 or above) | − (failure of bacterial growth to reach an optical density of approximately 0.5) | − (failure of bacterial growth to reach an optical density of approximately 0.5) | + (bacterial growth to an OD of approximately 1.8 or above) | +/− (to an optical density in a range of 0.7 to 1.5) | − (failure of bacterial growth to reach an optical density of approximately 0.7) | O.D. Response ([2]; 0 Hours, added 2 h after inoculation): 0.42; O.D. Response ([2]; 2 Hours, added 2 h after inoculation): 0.10; O.D. Response ([2]; 4.5 Hours): 0.14 and 0.11; O.D. Response ([2]; 6 Hours): 0.13; O.D. Response ([2]; 24 Hours): 0.12
O=C(O)C=C(C(F)(F)F)C(F)(F)F [D, 4,4,4-trifluoro-3-(trifluoromethyl)crotonic acid] |  |  | + (bacterial growth to an OD of approximately 2 or above) |  | + (bacterial growth to an OD of approximately 2 or above) | + (bacterial growth to an OD of approximately 2 or above) | +/− (to an optical density in a range of 0.5 to 1.5) | − (failure of bacterial growth to reach an optical density of approximately 0.5) | − (failure of bacterial growth to reach an optical density of approximately 0.5) | + (bacterial growth to an OD of approximately 1.8 or above) | + (bacterial growth to an OD of approximately 1.8 or above) | + (bacterial growth to an OD of approximately 1.8 or above) | 
